SMILES strings stand for the structures.

A word on the pKa: it is the negative logarithm of the acid dissociation constant. Low values mean a group that gives up its proton readily, high ones a group that holds its proton tightly. The half-life is how long it takes for the measured level to halve. One may read the clearance as the volume of plasma or blood freed of the substance per unit of time. The low end stands for inefficient removal, the high end for efficient removal. As a reminder, the Cmax is the peak of the concentration-time curve. Broadly, the bioavailability is dose-corrected exposure relative to a reference, in per cent. Lower therefore signals poor availability.

In data set [1] the target is Coagulation factor X (Homo sapiens, UniProt P00742). Put plainly: Binding affinity to human factor 10a after 10 mins. As to conditions: read-out: Ki app.
For data set [2], the target named is Prothrombin (Homo sapiens, UniProt P00734). Kind of data set: Binding affinity to human thrombin after 10 mins. The following applies: read-out: Ki app.
Data set [3] can be described thus: Binding affinity to bovine trypsin after 10 mins. More on the design: species or system Bos taurus. The following applies: read-out: Ki app.
Data set [4] concerns Plasma. Put plainly: Anticoagulant activity in human plasma assessed as concentration required to double prothrombin time. The class given is functional, cell-free.
A short description of data set [5]: Dissociation constant, pKa of the compound. Type of data set: physicochemical.
A short description of data set [6]: Half life in Beagle dog at 1 mg/kg, iv. The arrangement: dose 1 mg/kg, route intravenous. The following applies: in vivo. Type of data set: ADME, organism-based, Canis lupus familiaris.
Data set [7] is described as follows: Clearance in Beagle dog at 1 mg/kg, iv. The following applies: in vivo. Type of data set: ADME, organism-based, Canis lupus familiaris. The arrangement: dose 1 mg/kg, route intravenous.
The nature of data set [8]: Volume of distribution at steady state in Beagle dog at 1 mg/kg, iv. The arrangement: dose 1 mg/kg, route intravenous. As to conditions: in vivo, read-out: Vdss. Type of data set: ADME, organism-based, Canis lupus familiaris.
Data set [9] is described as follows: Plasma concentration in Beagle dog at 10 mg/kg, po. Type of data set: ADME, organism-based, Canis lupus familiaris. The arrangement: dose 10 mg/kg, route oral.
Data set [10] can be described thus: Bioavailability in Beagle dog at 10 mg/kg, po. As to conditions: in vivo. Type of data set: ADME, organism-based, Canis lupus familiaris.

Coagulation factor X, sequence (P00742 41-179 limits assumed): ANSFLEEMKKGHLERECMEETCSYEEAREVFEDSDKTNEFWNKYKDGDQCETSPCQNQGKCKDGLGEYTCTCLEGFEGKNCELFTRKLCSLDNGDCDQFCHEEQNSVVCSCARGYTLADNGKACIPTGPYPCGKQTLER
Coagulation factor X, sequence (P00742 235-488 limits assumed): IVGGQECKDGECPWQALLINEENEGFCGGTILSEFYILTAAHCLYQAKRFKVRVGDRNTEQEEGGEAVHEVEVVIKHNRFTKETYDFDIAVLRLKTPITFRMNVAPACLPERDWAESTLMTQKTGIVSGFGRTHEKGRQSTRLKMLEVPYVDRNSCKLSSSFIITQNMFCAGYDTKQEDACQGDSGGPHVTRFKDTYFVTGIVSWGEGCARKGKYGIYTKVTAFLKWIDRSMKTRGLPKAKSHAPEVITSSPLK

As for `CN(C)CCSCc1csc(C(=O)Nc2ccc(Cl)cc2C(=O)Nc2ccc(Cl)cc2)c1Cl`, the Ki is 2.7 nM in data set [1], 560 nM in [2] and more than 5 µM in data set [3]. The Cp in data set [4] amounted to 19 µM. In data set [5], the pKa came to 8.9.
As for `CN1CCN(Cc2csc(C(=O)Nc3ccc(Cl)cc3C(=O)Nc3ccc(Cl)cc3)c2Cl)CC1`, the Ki in data set [1] was 1 nM; in data set [2], 910 nM; in data set [3], more than 5 µM. In addition, the Cp in [4] is 12 µM. The molecule also showed a half-life in data set [6] of 120 min. In addition, the clearance in data set [7] is 5 mL/min/kg. The Vd in [8] came out at 0.7 L/kg. Also, the Cmax in data set [9] was determined as 6.3 µM. In data set [10], the bioavailability was 41%.
For the molecule `O=C(Nc1ccc(Cl)cc1)c1cc(Cl)ccc1NC(=O)c1scc(Cn2ccnn2)c1Cl`, the Ki in data set [1] is 1.4 nM; in [2], 2700 nM; in [3], more than 5 µM. For the same molecule, in [4], the Cp stood at 15 µM.

The values above are taken from ChEMBL document CHEMBL1146367, “Substituted thiophene-anthranilamides as potent inhibitors of human factor Xa” (Bioorg Med Chem, 2007).
